# From paper PMC7884711, “Identification of efficient prokaryotic cell-penetrating peptides with applications in bacterial biotechnology” (Communications Biology, 2021)
# Assays:
# E. coli DH5α cells [1] = test: Penetration efficiency of TAMRA-labeled CPPs, electroporation-based method, flow cytometry; format: cell-based, Escherichia coli; details: library CPPs, E. coli, electroporation, Tris buffer pH 7.5, 1 h, mean of n = 3–5
# Source text: (§1) (Fig. 2a). […] First, we prepared electrocompetent and chemically competent cells.
# E. coli DH5α cells [2] = test: Penetration efficiency of TAMRA-labeled CPPs, chemical (CaCl2) treatment method, flow cytometry; format: cell-based, Escherichia coli; details: TAMRA fluorescence intensity in E. coli, library screen of 98 CPPs
# Source text: as §1
# E. coli DH5α cells [3] = test: Inhibition of bacterial cell growth by CPPs (Max OD600 relative to control); format: cell-based, Escherichia coli; details: for Max OD (%) (Figure 3f): E. coli DH5α diluted 1/1000 in LB, 5 μg TAMRA-CPP (0.1 μg/μL), OD600 monitored 18 h, max OD of treated cells / max OD of control cells
# Procedure: E. coli DH5α cells were grown until OD600 = 1 at 37 °C with shaking at 200 rpm. […] Then, cell growth (OD600) was monitored for 18 h by using the Synergy^TM H1 hybrid multi-mode microplate reader (BioTek, Vermont, USA). As a control, we used E. coli cells that were not treated with CPPs.
# HEK293 cells = details: literature knowledge; cited from earlier work
# Source text: To date, mostly CPPs have been studied and utilized in mammalian cells, but in this study, we studied CPPs in bacteria, E. coli. Thus, it would be very useful to find the similarities and differences of CPPs between prokaryotes and eukaryotes.
# Methylomonas sp. DH-1 = test: Marker gene excision using CPP-conjugated Cre recombinase; format: cell-based; details: Methylomonas sp. DH-1, 50 μL protein (0.05 μg/μL), electroporation, 4 mM NiCl2 selection
# Procedure: For the marker gene excision experiment, the pIns-LKTL plasmid was transformed into Methylomonas sp. DH-1, and then the marker genes flanked with loxP sites (loxP-kan^R-tetA-loxP) were integrated into a non-coding region of the Methylomonas sp. DH-1 genome. To select correctly knocked-in cells, the transformed cells were grown on an NMS agar plate containing kanamycin (10 μg/mL) and 30% methane for 3–7 days. The knocked-in cells were harvested from the plate and washed twice with distilled water, and 50 μL of cell suspension was mixed with 50 μL of CPP-conjugated Cre recombinase (0.05 μg/μL). […] After electroporation, cells were incubated in two types of recovery buffers (20 mM Tris-HCl at pH 7.5 or NMS medium) for 3 h and then spread on NMS agar plates containing 4 mM NiCl2. The colonies grown on the NiCl2 plates were transferred to an NMS agar plate and a kanamycin-containing NMS agar plate to confirm the excision of the marker genes.
Molecule,Penetration efficiency (TAMRA fluorescence in E. coli) (E. coli DH5α cells [1]),Penetration efficiency (TAMRA FI) (E. coli DH5α cells [2]),Max OD (%) (Figure 3f) (E. coli DH5α cells [3]; replicate 1),Max OD (%) (Figure 3f) (E. coli DH5α cells [3]; replicate 2),Max OD (%) (Figure 3f) (E. coli DH5α cells [3]; replicate 3),"Growth rate (%) (E. coli DH5α cells [3]; E. coli growth with CPP, relative to control)","Anti-bacterial activity (E. coli DH5α cells [3]; class (Cytotoxic / Safe), cutoff of 50%)",Efficiency as CPP in mammalian cells (HEK293 cells),"Marker excision efficiency (%) (Methylomonas sp. DH-1; recovery in NMS buffer 3 h, replicate 1)","Marker excision efficiency (%) (Methylomonas sp. DH-1; recovery in NMS buffer 3 h, replicate 2)","Marker excision efficiency (%) (Methylomonas sp. DH-1; recovery in NMS buffer 3 h, replicate 3)","Marker excision efficiency (%) (Methylomonas sp. DH-1; recovery in Tris-Cl buffer 3 h, replicate 1)","Marker excision efficiency (%) (Methylomonas sp. DH-1; recovery in Tris-Cl buffer 3 h, replicate 2)","Marker excision efficiency (%) (Methylomonas sp. DH-1; recovery in Tris-Cl buffer 3 h, replicate 3)"
"KLPVM [CPP 63, TAMRA-labeled CPP of the 98-CPP library]",low efficiency,26.6874,69.833,72.8601,66.2839,69.659,Safe,highly efficient,–,–,–,–,–,–
"Cre recombinase (No CPP): Cre recombinase without CPP, control (protein, UniProt P06956 1-343, looked up) Recombinase cre: MSNLLTVHQNLPALPVDATSDEVRKNLMDMFRDRQAFSEHTWKMLLSVCRSWAAWCKLNNRKWFPAEPEDVRDYLLYLQARGLAVKTIQQHLGQLNMLHRRSGLPRPSDSNAVSLVMRRIRKENVDAGERAKQALAFERTDFDQVRSLMENSDRCQDIRNLAFLGIAYNTLLRIAEIARIRVKDISRTDGGRMLIHIGRTKTLVSTAGVEKALSLGVTKLVERWISVSGVADDPNNYLFCRVRKNGVAAPSATSQLSTRALEGIFEATHRLIYGAKDDSGQRYLAWSGHSARVGAARDMARAGVSIPEIMQAGGWTNVNIVMNYIRNLDSETGAMVRLLEDGD",–,–,–,–,–,–,–,–,10.353,9.156,9.01,1.75,2.19,1.75
